Here are results for four compounds from patent US20170049822A1, “METHODS OF ENHANCING STEM CELL ENGRAFTMENT” (TEXAS HEART INSTITUTE, priority 2014, published 2017).

For data set [1], the system named is hMSCs in ischemic hindlimbs of NOD/SCID mice. Description: In vivo bioluminescence imaging of hMSC retention with daily SEE drug treatment. The settings on record: 3 days, hMSCs preconditioned 100 nM 4 days. As for the experimental part: The ability of stem cells to engraft in ischemic tissues in the presence of SEE was investigated. More specifically, the ability of hMSCs to engraft in ischemic hindlimbs in the presence of different SEEs was investigated. The studies were conducted in as described in Example 5, unless otherwise specified. To investigate the signaling pathways involved in prostacyclin-induced cell retention after hindlimb ischemia, hMSCs were preconditioned with either prostacyclin receptor agonist Cicaprost (100 nM) or PPARβ/δ agonist GW501516 (100 nM) for 4 days in vitro. Cells were then injected into the gastrocnemius of ischemic hindlimbs of NOD/SCID mice. After cell injection, mice were either treated daily with Cicaprost (oral gavage, LD=0.3 mg/kg/day; HD=1 mg/kg/day) or GW501516 (intra peritoneal (IP), 5 mg/kg/day). LD=low dose and HD=high dose. In vivo BLI was performed on cell-drug treated mice.

For data set [2] the following is noted: in vivo; cited from earlier work.
Data set [3] relates to ischemic hindlimbs. The data set can be described thus: Quantitative micro-CT of microvascular network in ischemic hindlimbs. Type of data set: in vivo, mice. From the text:
The outcomes of local delivery of CPGI2, a prostacyclin analogue, to ischemic hindlimbs were investigated. More specifically, remodeling of microvascular network in ischemic hindlimbs was monitored in conjunction with CPGI2 treatment. High-definition, volumetric, quantitative micro-CT was used to assess the overall microvascular geometry of ischemic and contralateral non-ischemic legs 14 days after femoral occlusion and constant local administration of CPGI2 or saline. […] Similar global morphometric analyses were used to evaluate contralateral non-ischemic legs. […] To further verify the pro-arteriogenic effect of CPGI2, a quantitative histogram was generated by using micro-CT to illustrate frequency and distribution of blood vessel size in CPGI2-treated legs in comparison to saline-treated or contralateral non-ischemic legs. […] Referring to FIG. 4B, the red dashed circles show more vasculature in the thigh muscle where CPGI2 was administered as compared to the similar area where saline was administered. […] CPGI2 treatment positively affects remodeling of the microvascular network in ischemic hindlimbs. Quantitative micro-CT analyses indicate CPGI2 augments vascular growth.

The subject of data set [4] is ischemic hindlimbs. Description: Live microscopy / quantitative confocal analysis of arteriolar growth in ischemic hindlimbs. Type of data set: in vivo, mice. The conditions noted are these: ischemic legs. From the text:
The outcomes of local delivery of CPGI2, a prostacyclin analogue, to ischemic hindlimbs were investigated. More specifically, arteriolar growth in ischemic hindlimbs was monitored in conjunction with CPGI2 treatment. Dynamic changes in the microvascular morphology of the limb region distal to the ligation where CPGI2 was applied were microscopically examined in live mice. At 7 days after treatment, structural remodeling at the arteriolar level in the CPGI2 group was more distinct than in the saline group, as shown in FIG. 3. […] More intra-arteriolar connections (solid line arrows, as shown in FIG. 3) and corkscrew extensions of arterioles (dashed line arrows, as shown in FIG. 3) developed in CPGI2-treated versus saline-treated groups. Arteriolar networks were identified by their branching out from a large feeder femoral artery or from a saphenous branch of descending genicular artery.

Data set [5] has as its system ischemic hindlimbs. The data set can be described thus: Laser Doppler perfusion of ischemic hindlimbs with local CPGI2 delivery by osmotic pump. The settings on record: local delivery to ischemic thigh muscle, n=5/group. Type of data set: in vivo, mice. As for the experimental part: Serial measurements of perfusion were performed with the use of a laser Doppler image device (Perimed AB, […]) at 24 hours and 3, 5, 7, and 14 days after cell injections in the cell-treated groups and at the same time points in iloprost-treated mice. Perfusion was expressed as the perfusion ratio in the ischemic compared to the contralateral, non-manipulated leg. The outcomes of local delivery of CPGI2, a prostacyclin analogue, to ischemic hindlimbs were investigated. More specifically, blood perfusion in ischemic hindlimbs was monitored in conjunction with CPGI2 treatment. An osmotic pump was implanted and a catheter was used to deliver the prostacyclin analogue CPGI2 or saline (vehicle) to the surface of the ischemic anterior thigh muscle for up to 14 days.

Take `CCC#CC[C@H](C)[C@H](O)C#C[C@@H]1[C@H]2C/C(=C/COCC(=O)O)C[C@H]2C[C@H]1O` [Cicaprost]: the “bioluminescent intensity (hMSC retention) versus no drug treatment” value in data set [1] (oral gavage daily 0.3 or 1 mg/kg/day) is recorded as “markedly higher”.
For `Cc1cc(SCc2sc(-c3ccc(C(F)(F)F)cc3)nc2C)ccc1OCC(=O)O` [GW501516], the “bioluminescent intensity (hMSC retention) versus no drug treatment” value in data set [1] (intra peritoneal 5 mg/kg/day) is recorded as “markedly higher”.
`CCCCC[C@H](O)/C=C/[C@@H]1[C@H]2C/C(=C/CCCC(=O)O)O[C@H]2C[C@H]1O` [PGI2, prostacyclin]: the circulating half-life in data set [2] was 1 to 2 min.
In data set [3] (ischemic legs, 14 days), `CCCCC[C@H](O)/C=C/[C@@H]1[C@H]2C/C(=C/CCCC(=O)O)C[C@H]2C[C@H]1O` [CPGI2, Carbaprostacyclin] had a distance between vessels of 6.60±0.52 mm. Moreover, in data set [3] (ischemic legs, 14 days after femoral occlusion, constant local administration), the vascular volume was found to be 41.28±2.22 mm^3. Moreover, the “small vessels, vessel diameter bins 40-60 μm, relative to saline-treated ischemic legs” value in data set [3] (micro-CT histogram, ischemic legs) is given as “significant increase”. The “morphologic variables of contralateral non-ischemic legs versus saline-treated” value in data set [3] (non-ischemic legs, 14 days) is listed as “No significant differences”. In addition, in data set [4] (7 days after treatment), the “structural remodeling at the arteriolar level versus saline group” value is on record as “more distinct”. In addition, in data set [4] (quantitative confocal analysis), the “number of microvessels ranging in size from 15-50 m in diameter” value is 38.00±2.41 /high-power field [HPF]. Further, the blood flow recovery in data set [5] (7 days, perfusion ischemic vs contralateral leg) is listed as 58.80±5.74%; in data set [5] (14 days), 88.40±8.71%.
